Counter-ions that a name gives are not always drawn. Each block holds one molecule with its values, some of them ahead of it.
Experiments:
[1] = molecular target: T1, recombinant GST-Pim-1 kinase (Homo sapiens, UniProt P11309); test: In vitro system for measurement of Pim-1 kinase activity (phosphorylation of biotinylated p21 peptide, OD450); type: biochemical; details: ATP 10 μM, 25° C., 30 minutes; read-out: 50% inhibitory concentration (IC50) of Pim-1 kinase activity
T1 construct: GST
Description: The sensitivity (IC50: inhibitory concentration of 50% of activity) and concentration dependence of these novel compounds to inhibition of Pim-1 activity were studied (using the following system).
In Vitro System for Measurement of Pim-1 Kinase Activity:
(1) Add a biotinylated p21 peptide (1 mM) as a substrate to be phosphorylated by Pim-1 and a recombinant GST-Pim-1 kinase (18 μg/ml) to a kinase buffer.
(2) Add a test compound (dissolved in 2% DMSO) or 2% DMSO (a solvent control) thereto.
(3) Add ATP (10 μM) thereto and incubate the mixture at 25° C. for 30 minutes (initiate a kinase reaction).
(4) Add EDTA (10 mM) thereto to stop the reaction.
(5) Add 10 μl of the kinase reaction mixture to a 96-well plate (which has been blocked in advance) coated with avidin, and incubate the plate at room temperature for 60 minutes.
(6) Wash the wells with a washing buffer three times.
(7) Add a diluted solution (1:500) of an antibody which recognizes phosphorylated p21 (Thr145) to the wells in an amount of 100 μl per well and incubate the plate for 90 minutes.
(8) Wash the wells with a washing buffer three times.
(9) Add a diluted solution (1:2000) of a secondary antibody which […] to the wells in an amount of 100 μl per well and incubate the plate for 60 minutes.
(10) Wash the wells with a washing buffer five times.
(11) Add a substrate (TMB) for peroxidase to the wells and incubate the plate for 8 minutes. Then, stop the reaction with 2 M H2SO4 and perform the colorimetric determination using a microplate reader (OD450).

[2] = tested on: prostate cancer cell line (PC-3); test: Cytotoxicity, MTS method, time course; type: cell-based; details: time course observation of viable cell count, FIG. 3
Description: (§1) Various cancer cell lines were seeded in 96-well plates at a density of 3 to 5000 cells per well, and on the following day, any of the novel compounds was added thereto such that the final concentrations of the compounds were 0 to 100 μM (the concentration of the solvent DMSO was 0.5%) and the plates were incubated for 24 to 72 hours. The cytotoxicity to cancer cells can be examined by calculating the viable cell count by the MTS method (CellTiter 96 Aqueous One Solution Cell Proliferation Assay, Promega) after incubation. Here, the MTS method is a viable cell count calculation method using the fact that a tetrazolium compound (MTS) is converted into a chromogenic formazan product by an oxidoreductase of viable cells. In the measurement method, to each well of a 96-well plate containing 100 μl of a culture medium and sample cells, 20 μl of CellTiter 96 Aqueous One Solution Reagent is added and the plate was incubated in an incubator at 37° C. for 90 to 120 minutes, and then, the absorbance at 490 nm is measured using a 96-well plate reader.

[3] = tested on: lung cancer cell line (A549); test: Cytotoxicity, MTS method; type: cell-based
Description: as §1

[4] = tested on: oral squamous cell carcinoma cell line (HSC-3); test: Cytotoxicity, MTS method; type: cell-based; details: at 100 μM and 10 μM, even at 1 μM to some cell lines, FIG. 2
Description: as §1

[5] = tested on: pancreatic cancer cell line (MiaPaCa-2); test: Cytotoxicity, MTS method; type: cell-based; details: at 100 μM and 10 μM, even at 1 μM to some cell lines, FIG. 2
Description: as §1

[6] = tested on: uterine cancer cell line (HeLa); test: Cytotoxicity, MTS method; type: cell-based; details: at 100 μM and 10 μM, even at 1 μM to some cell lines, FIG. 2
Description: as §1

[7] = tested on: normal renal cell line (293); test: Cytotoxicity, MTS method; type: cell-based; details: at 100 μM and 10 μM, even at 1 μM to some cell lines, FIG. 2
Description: as §1

[8] = tested on: esophageal squamous cell carcinoma cell line (T.Tn); test: Cytotoxicity, MTS method; type: cell-based
Description: as §1

[9] = tested on: pancreatic cancer cell line (BxPC-3); test: Cytotoxicity, MTS method, time course; type: cell-based; details: FIG. 4
Description: as §1

T1 sequence (P11309 whole entry): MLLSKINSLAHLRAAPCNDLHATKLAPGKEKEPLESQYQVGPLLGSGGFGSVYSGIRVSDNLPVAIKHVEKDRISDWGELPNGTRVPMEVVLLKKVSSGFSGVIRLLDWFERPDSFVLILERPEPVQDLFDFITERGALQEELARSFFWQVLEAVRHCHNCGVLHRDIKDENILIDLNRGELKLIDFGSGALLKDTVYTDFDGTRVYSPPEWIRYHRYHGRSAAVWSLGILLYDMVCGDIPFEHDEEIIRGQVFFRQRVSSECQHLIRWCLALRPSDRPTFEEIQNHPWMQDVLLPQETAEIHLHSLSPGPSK

IC50 [1]: 50 nM
Structure (SMILES): O=C1Nc2ccccc2/C1=C\c1ccc(/C=C2/C(=O)Nc3ccccc32)o1 [compound (1), (3E)-3[(5-((E)-(2-oxoindolin-3-ylidene)methyl)furan-2-yl)methylene]indoline-2-one]
cell lethal effect [2]: has a cell lethal effect
cytotoxicity ([3]; A549, at 100 μM and 10 μM, even at 1 μM to some cell lines, FIG. 2): remarkable cytotoxicity
cytotoxicity [4]: remarkable cytotoxicity
cytotoxicity [5]: remarkable cytotoxicity
cytotoxicity [6]: remarkable cytotoxicity
cytotoxicity [7]: remarkable cytotoxicity
cytotoxicity ([8]; T.Tn, at 100 μM and 10 μM, even at 1 μM to some cell lines, FIG. 2): remarkable cytotoxicity

IC50 [1]: 10 nM
Structure (SMILES): CC(=O)N1C(=O)/C(=C/c2ccc(/C=C3/C(=O)N(C(C)=O)c4ccccc43)o2)c2ccccc21 [compound (2), (3E)-1-acetyl-3-[((5E)-((1-acetyl-2-oxoindolin-3-ylidene)methyl)furan-2-yl)methylene]indolin-2-one]
cell proliferation inhibitory effect and cell lethal effect [9]: has a cell proliferation inhibitory effect and a cell lethal effect
cell proliferation inhibitory effect and cell lethal effect ([3]; lung cancer cell line (A549), time course, FIG. 4): has a cell proliferation inhibitory effect and a cell lethal effect
cell proliferation inhibitory effect and cell lethal effect ([8]; esophageal squamous cell carcinoma cell line (T.Tn), time course, FIG. 4): has a cell proliferation inhibitory effect and a cell lethal effect

IC50 [1]: 800 nM
Structure (SMILES): CC(=O)N1C(=O)/C(=C/c2ccc(/C=C3/C(=O)Nc4ccccc43)o2)c2ccccc21 [compound (3), (3E)-3-((5-((E)-(1-acetyl-2-oxoindolin-3-ylidene)methyl)furan-2-yl)methylene)indolin-2-one]

IC50 [1]: 26 nM
Structure (SMILES): CCCC(=O)N1C(=O)/C(=C/c2ccc(/C=C3/C(=O)N(C(=O)CCC)c4ccccc43)o2)c2ccccc21 [compound (7), (3E)-1-butyryl-3-[((5E)-((1-butyryl-2-oxoindolin-3-ylidene)methyl)furan-2-yl)methylene]indolin-2-one]

IC50 [1]: 1400 nM
Structure (SMILES): CC(=O)N1C(=O)/C(=C/c2ccc(/C=C3/C(=O)Nc4ccc(C(=O)O)cc43)o2)c2ccccc21 [compound (9), (3E)-3-((5-((E)-(1-acetyl-2-oxoindolin-3-ylidene)methyl)furan-2-yl)methylene)-2-oxoindoline-5-carboxylic acid sodium salt]

IC50 [1]: 580 nM
Structure (SMILES): CC(=O)N1C(=O)/C(=C/c2ccc(/C=C3/C(=O)Nc4cc(C(=O)O)ccc43)o2)c2ccccc21 [compound (10), (3E)-3-((5-((E)-(1-acetyl-2-oxoindolin-3-ylidene)methyl)furan-2-yl)methylene)-2-oxoindoline-6-carboxylic acid sodium salt]

From patent US8053461B2, “Oxindole derivative” (Theravalues Corporation, priority 2006, dated 2011)
